Legend:
[1] = tumour-inoculated ICR/JCL mice, intraperitoneally once a day for 10 days, doses 25 mg/kg to 0.19 mg/kg, Behres-Karber's method, observed up to 50 days
[2] = test system: Ehrlich ascites carcinoma cells; settings: for ED50: maximum dose level at which mice survive 100 to 200 percent of control survival days, intraperitoneally once a day for 10 days, doses 25 mg/kg to 0.19 mg/kg; for anti-tumor effect (in words): mouse, in vivo
[3] = test system: Ehrlich ascites carcinoma cells; assay: Life-prolongation effect and toxicity in mice inoculated with ascites type Ehrlich carcinoma; settings: mouse, in vivo

Cc1c(N)nc([C@H](CC(N)=O)NC[C@H](N)C(N)=O)nc1C(=O)N[C@H](C(=O)N[C@H](C)[C@@H](O)[C@H](C)C(=O)N[C@H](C(=O)NCCc1nc(-c2nc(C(=O)NCCCNCCCCN)cs2)cs1)[C@@H](C)O)[C@@H](O[C@@H]1O[C@@H](CO)[C@@H](O)[C@H](O)[C@@H]1O[C@@H]1O[C@H](CO)[C@@H](O)[C@H](OC(N)=O)[C@@H]1O)c1cnc[nH]1 [Compound 7, Bleomycin A5, reference compound]
LD50 [1]: 15.6
ED50 [2]: 0.19
anti-tumor effect (in words) [2]: strong in anti-tumor property
toxicity (in words) [3]: less in toxicity

Cc1c(N)nc(C(CC(N)=O)NCC(N)C(N)=O)nc1C(=O)NC(C(=O)NC(C)C(O)C(C)C(=O)NC(C(=O)NCCc1nc(-c2nc(C(=O)NCCCNCCCN(C)C)cs2)cs1)C(C)O)C(OC1OC(CO)C(O)C(O)C1OC1OC(CO)C(O)C(OC(N)=O)C1O)c1cnc[nH]1 (centres unmarked) [Compound 21]
LD50 [1]: 10.3
ED50 [2]: 0.19

COCCCNCCCNC(=O)c1csc(-c2csc(CCNC(=O)C(NC(=O)C(C)C(O)C(C)NC(=O)C(NC(=O)c3nc(C(CC(N)=O)NCC(N)C(N)=O)nc(N)c3C)C(OC3OC(CO)C(O)C(O)C3OC3OC(CO)C(O)C(OC(N)=O)C3O)c3cnc[nH]3)C(C)O)n2)n1 (centres unmarked) [Compound 33, 3-(3-methoxypropyl)-aminopropylaminobleomycin]
LD50 [1]: 7.5
ED50 [2]: 0.19

Cc1c(N)nc(C(CC(N)=O)NCC(N)C(N)=O)nc1C(=O)NC(C(=O)NC(C)C(O)C(C)C(=O)NC(C(=O)NCCc1nc(-c2nc(C(=O)NCCCNC(C)c3ccccc3)cs2)cs1)C(C)O)C(OC1OC(CO)C(O)C(O)C1OC1OC(CO)C(O)C(OC(N)=O)C1O)c1cnc[nH]1 (centres unmarked) [Compound 35, 3-(1-phenylethyl)-aminopropyl-amino-bleomycin]
ED50 [2]: 0.19
anti-tumor effect (in words) [2]: excellent in effect
toxicity (in words) [3]: less toxicity
